This is an account of results in patent publication US12178908B2, “Tolerogenic liposomes and methods of use thereof” (AnTolRx, Inc., priority 2018, dated 2024).

Values after ≈ are worked out from the molar mass of the structure shown. Where two headings read alike, the source gives them in different places.

One data set deals with splenocytes of 2D2 mice. As to the kind of experiment: Proliferation of 2D2 splenocytes stimulated in vitro (Cell Titer Blue). The class given is cell-based. The conditions noted are these: 10 μg MOG; 1 μg ITE; 72 hours at 37° C. The protocol: Splenocytes were harvested from 2D2 mice, which express a transgenic 2D2 T cell […] (TCR) specific for MOG35-55 and stimulated in vitro with 10 μg of MOG delivered either freely (Free MOG), loaded in egg-PC liposomes alone (MOG-L) or loaded in egg-PC liposomes and additionally stimulated with ITE-loaded egg-PC liposomes (at a dose of 1 μg ITE). Cell proliferation was assessed after incubation at 37° C. for 72 hours using a Cell Titer Blue cell proliferation assay.
In general terms: Alamar Blue is a resazurin reagent that responds to reducing activity.

Data set [1] is classed as physicochemical. How it is done:
A stability assessment was performed in which liposomes from batch 1 were stored in HBS for one month at 4° C. and re-assayed.
• Lipid ratios were varied in the following range for each lipid: • Egg PC or HEPC: ˜53-72 mol % • Cholesterol: ˜25-44 mol % • PEG2000-PE: 1.5 to 6.25 mol % ITE was fixed at 0.5% by weight to the total lipid mass for all the batches tested. ITE was added from a DMSO stock. Batches were observed daily for any signs of precipitation/aggregation

In the next data set the test system is EAE. The conditions noted are these: cited from earlier work.
Data set [2] in a line: Solubility of ITE in conventional solvents. The class given is physicochemical. The source says: 2-(1H-Indol-3-ylcarbonyl)-4-thiazolecarboxylic acid methyl ester (ITE) is a potent aryl hydrocarbon receptor agonist which is difficult to formulate in nanoparticulate form (including gold and PLGA nanoparticles and many conventional liposomal compositions, for example). […] ITE is also highly prone to self-aggregation.

Turning to “Free MOG: MOG35-55 peptide MEVGWYRSPFSRVVHLYRNGK (SEQ ID NO: 82) delivered freely”, the 2D2 cell proliferation result in the data set on splenocytes of 2D2 mice was “induced 2D2 cell proliferation”.

As for DMPC, in data set [1], the “stability (observation)” value is “in liposome, not stable”.

As to `COC(=O)c1csc(C(=O)c2c[nH]c3ccccc23)n1` [ITE, 2-(1H-Indol-3-ylcarbonyl)-4-thiazolecarboxylic acid methyl ester], the EAE amelioration result in the data set on EAE (daily 200 μg per mouse, i.p. or orally, Quintana et al. PNAS 2010) is “ameliorated”. Besides, the solubility (commonly the dissolved amount per volume that the medium holds) in data set [2] (ethanol, organic solvent or mixture) was around 3300 µM (≈ 945 µg/mL); in data set [2] (methanol, organic solvent or mixture), around 3000 µM (≈ 859 µg/mL); in data set [2] (water), around 115 µM (≈ 32.9 µg/mL).

With `Clc1cc2c(cc1Cl)Oc1cc(Cl)c(Cl)cc1O2` [TCDD, 2,3,7,8-tetrachlorodibenzo-p-dioxin], the “potency relative to ITE in most in vivo studies” value with EAE (TCDD vs ITE) was ~1,000 fold. Also, the EAE amelioration result with EAE (dose of 100 ng, Quintana et al. Nature 2008) was “not”; in the data set on EAE (dose of 1 μg, Quintana et al. Nature 2008), “ameliorated EAE”.
